Earlier results as cited in patent US9011898B2, “Composition for active principles delivery containing a fatty acid excipient” (CID S.p.A., priority 2010, dated 2015).

Conditions: aqueous solutions

CO[C@H]1C[C@@H]2CC[C@@H](C)[C@@](O)(O2)C(=O)C(=O)N2CCCC[C@H]2C(=O)O[C@H]([C@H](C)C[C@@H]2CC[C@@H](O)[C@H](OC)C2)CC(=O)[C@H](C)/C=C(\C)[C@@H](O)[C@@H](OC)C(=O)[C@H](C)C[C@H](C)/C=C/C=C/C=C/1C [Sirolimus]
Stability in aqueous environments at neutral or basic pH with respect to acidic pH: less stable
